For data set [1], the target named is Phosphorylated BTK in Ramos cells (Homo sapiens (Human), UniProt Q06187). As to the kind of experiment: Determination of phosphorylated BTK in Ramos cells (BTK phospho-Y223 HTRF). Format: cell-based. The conditions noted are these: Ramos cells stimulated with immunoglobulin M 10 μg/mL and hydrogen peroxide 3.3 mM, 10 minutes. On the procedure: Ramos cells were starved in PRMI 1640 medium with 1% FBS for 2 hours. The starved Ramos cells were diluted with Hank's balanced salt solution to 5.0×10^6 cells/ml, seeded in a 96-well plate with 20 μL/well (1.0×10^5 cells/well), and cultured in a 5% CO2, 37° C. cell incubator. […]
Sequence of Phosphorylated BTK in Ramos cells (Q06187 whole entry): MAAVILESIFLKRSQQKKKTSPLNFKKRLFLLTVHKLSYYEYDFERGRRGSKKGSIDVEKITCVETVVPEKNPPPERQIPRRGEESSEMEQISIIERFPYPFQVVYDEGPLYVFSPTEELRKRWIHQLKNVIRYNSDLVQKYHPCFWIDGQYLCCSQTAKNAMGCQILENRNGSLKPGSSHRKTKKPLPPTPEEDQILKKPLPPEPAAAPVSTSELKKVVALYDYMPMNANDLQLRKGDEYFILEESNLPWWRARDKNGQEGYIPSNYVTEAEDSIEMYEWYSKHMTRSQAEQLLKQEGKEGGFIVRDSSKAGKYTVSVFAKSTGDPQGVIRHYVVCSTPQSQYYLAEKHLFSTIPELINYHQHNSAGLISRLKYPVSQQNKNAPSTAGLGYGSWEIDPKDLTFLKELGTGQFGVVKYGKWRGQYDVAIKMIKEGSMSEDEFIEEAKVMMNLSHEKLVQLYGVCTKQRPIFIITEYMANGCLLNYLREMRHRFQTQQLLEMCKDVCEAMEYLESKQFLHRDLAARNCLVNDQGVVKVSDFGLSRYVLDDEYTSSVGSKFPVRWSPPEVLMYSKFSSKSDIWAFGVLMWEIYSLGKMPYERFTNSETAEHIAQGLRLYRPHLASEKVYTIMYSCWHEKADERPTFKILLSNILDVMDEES
The 384 well plate incubated overnight in the constant temperature incubator was taken out to detect the luminescence signal using the Envision microwell plate reader at the […]. The reading value at 665 nm/615 nm of each well multiplied by 10^4 was used as the signal value of each well.
The average signal value of the wells supplemented with the mixed solution of human immunoglobulin M (final concentration was 10 μg/mL) and hydrogen peroxide (final concentration was 3.3 mM) without the test compound was regarded as the high value, and the average signal value of the wells without immunoglobulin M stimulation and without the test compound was regarded as the low value. According to the signal value in each well, the inhibition ratio (%) of each concentration of compounds was calculated, and the 205 model in XL-Fit 5.3 software (ID Business Solutions Limited) was used to obtain an IC50 value.
The inhibition ratio is calculated as follows: inhibition ratio (%)=100%−{(treating well for the test compound−negative control treating well)/(control treating well for anti-human immunoglobulin M−negative control treating well)}×100%, wherein, […]

In data set [2] the test system is B cell activation in mice whole blood (BTK target). As to the kind of experiment: In vivo inhibitory effect on BTK target: anti-IgD antibody-induced B cell activation in mice whole blood after oral dosing. The arrangement: species or system mouse. Conditions: 20 mg/kg oral gavage, single administration, 16 h. The source says: Objects: B cells in mice whole blood were induced and activated by the anti-IgD antibody, and the inhibitory effect of the compound of the present invention on B cell activation in vivo was studied, so as to determine the inhibitory effect of the compound of the present invention on the BTK target in vivo.
Methods: C57BL/6 mice (female, 18-20 g, purchased from Shanghai Lingchang Biotechnology Co., Ltd.) were grouped according to Table 1.
In addition, the blood of mice in the drug-treated group was centrifuged to separate plasma for blood concentration analysis.
Calculation for Inhibition Ratio: Inhibition ratio=(percentage of B cell activation ratio in anti-IgD antibody-induced vehicle group-percentage of B cell activation ratio in drug-treated group)/(percentage of B cell activation ratio in anti-IgD antibody-induced vehicle group-percentage of B cell activation ratio in vehicle control group)×100%
All data are represented by mean±standard error. For the comparison between each drug-treated group and the anti-IgD antibody-induced vehicle group, p value was calculated by Graphpad Prism using one-way ANOVA analysis of variance and Dunnett's test, and for the comparison between each drug-treated group, p value was calculated by using unpaired t test.

Data set [3] is described as follows: Drug concentration in plasma of mice of the B cell activation study. Format: in vivo. Conditions: C57BL/6, plasma; mouse, 20 mg/kg oral, 16 h after administration. Here is the method:
The animals of each group were administered, then were placed in CO2 for anesthesia at designated time points, blood samples were taken from […] via retro-orbital bleeding, and heparin was used for anticoagulation; 90 μL of whole blood was taken from mice of each group, and added to a 96 well culture plate, and anti-mouse IgD antibody (BIO-RAD, Cat #MCA4693) was added to each well to a final concentration of 0.01 μg/μL (respectively for each drug-treated group and anti-IgD antibody-inducted vehicle group); in addition, 90 μL of whole blood of mice in the vehicle group was taken and added to the 96-well culture plate, and PBS (phosphate buffer, GIBCO, Cat # C20012500BT) was added to each well to a final concentration of 0.01 μg/μL (namely, the vehicle control group); Each group was mixed well and incubated in a 37° C./5% CO2 incubator for 4 hours. In addition, the blood of mice in the drug-treated group was centrifuged to separate plasma for blood concentration analysis.

A short description of data set [4]: Stability test in liver microsomes (rat). Format: in vitro ADME. The conditions noted are these: rat liver microsomes 0.5 mg/mL, compound 1 μM, 37° C. Here is the method: The test compound stock solution was diluted with an organic solvent (usually a mixture of acetonitrile, methanol and water with various ratios, depending on the solubility of the compound, if necessary, 1 N hydrochloric acid or 1 N sodium hydroxide would be added to facilitate solubilization) to the 0.1 mM (the final concentration of the compound in the reaction system was 1 μM) and the concentration percentage of the organic solvents in the incubation system no more than 1% (wherein the percentage of DMSO was required to be no more than 0.1%). An appropriate amount of 100 mM NADP, 500 mM G-6-P and 100 Unit/mL G-6-PDH were mixed and diluted with ultrapure water (the final system contains 1 mM NADP, 5 mM G-6-P and 1 Unit/mL G-6-PDH), pre-incubated in a 37° C. water bath for 10 minutes and then placed on ice for use as a NADPH regeneration solution. 20 mg/mL liver microsomes solution and 200 mM phosphate buffer were mixed, and diluted with ultrapure water to give a liver microsomes solution containing 2.5 mg/mL liver microsomes (the final concentration of the reaction system is 0.5 mg/mL) and 50 mM phosphate buffer. […]
The percentage of the remaining compound after 30 minutes of incubation comparing with that in the 0-minute sample was calculated using the peak area ratio of the compound to the internal standard as an indicator, to evaluate the metabolic stability of the compound.
In general terms: Liver microsomes are vesicles of endoplasmic reticulum, rich in cytochrome P450 enzymes.

In data set [5] the test system is CIA (collagen induced arthritis) rats. Briefly: Rat arthritis model induced by type II collagen (CIA). The class given is in vivo. The conditions noted are these: compared with vehicle control group. On the procedure:
An appropriate amount of bovine type II collagen (CII, Chondrex (Redmond, Wash., USA), Cat #20021) was weighed and dissolved in 0.1 mole of acetic acid (SPGC Sinopharm Chemical Reagent Co., Ltd (Shanghai, P.R. China), Cat #: 10000218.), which was formulated into a solution with a concentration of 6 mg/mL, stirred at 4° C. overnight, and added with an equal volume of Freund's incomplete adjuvant (Sigma-Aldrich.(St. Louis, Mo., USA), Cat #: SLBW0366.), fully emulsified to prepare an emulsion with a CII concentration of 3 mg/mL.
Female Lewis rats were purchased from Beijing Vital River Laboratory Animal Technology Co., Ltd. (certificate number 20200928Aazz0619000579, initial body weight of 110-130 grams), and 6 rats were randomly selected as a normal group; and all of the remaining rats were immunized. In the first immunization on day 0, the rats except those in the normal group were anesthetized with isoflurane (Hebei Yipin Pharmaceutical Co., Ltd., Lot: C002170601.), and then disinfected with 75% alcohol, and 0.2 mL of emulsion was injected intradermally at the base of the tail thereof. A second challenge was carried out on day 7, and 0.2 mL of emulsion was intradermally injected using the same method. Once the animals developed symptoms on day 10, the incidence conditions thereof were closely monitored.
After grouping, the normal group was not administered, and the rats in the other groups were administered with the control vehicle, 0.25 mg/kg and 4 mg/kg of the reference GDC-0853, and each dose of compound 1 orally once a day until the end of the experiment.
The paw volume was measured on day 10 after immunization, and the left and right hind paw volumes (V) were measured every day after the paw volume increase was detected.
The arthrosis paw volumes of the left and right hind limbs of each animal were measured, and the average paw volume (APV) was calculated according to the following formula: Average paw volume APV=(Vleft+Vright)/2
The average arthrosis paw volume of each animal before administration was used as the baseline (or considered 100% inhibition of inflammation). […]
The area under the curve (AUC) of the average paw volume swelling is the area under the curve of the arthrosis score swelling calculated by the trapezoid method, and the calculation formula is: AUCAPS=1/2×(APSd1+APSd2)×(d2−d1)+1/2×(APSd2+APSd3)×(d3−d2)+ . . . +1/2×(APSdn+APSd(n-1))×(dn−dn-1). […]
ED50 is calculated by XLfit software according to the AUC inhibition ratio of the area under the curve of the average paw volume swelling. […]

One may read the IC50 as the concentration needed to halve the response being measured. A high value points to weaker potency in that assay.

Regarding `C[C@@H]1CN(C2COC2)C[C@H](C)N1c1ccc(Nc2cc(-c3ccnc(-n4ccn5c6c(cc5c4=O)CC(C)(C)C6)c3CO)cn(C)c2=O)nc1` [Compound 2], in data set [1], half-maximal inhibition (IC50) required 6 nM. Besides, the “Inhibition ratio (%) on B cell activation” value in data set [2] and in data set [2] (listed as compound 2) was 43% throughout. This molecule also returned a concentration at 16 h in data set [3] of 6.6 ± 2.51 ng/mL.

In data set [1], `C[C@H]1CN(C2COC2)C[C@H](C)N1c1ccc(Nc2cc(-c3ccnc(-n4ncn5c6c(cc5c4=O)CC(C)(C)C6)c3CO)cn(C)c2=O)nc1` [Compound 4, 2-(5-((5-((2S,6S)-2,6-dimethyl-4-(oxetan-3-yl)piperazin-1-yl)pyridin-2-yl)amino)-3′-(hydroxymethyl)-1-methyl-6-oxo-1,6-dihydro-[3,4′-bipyridin]-2′-yl)-7,7-dimethyl-7,8-dihydro-2H-cyclopenta[4,5]pyrrolo[1,2-d][1,2,4]triazin-1(6H)-one] displayed a half-maximal inhibitory concentration (IC50) of 3 nM.

Consider `C[C@H]1CN(C2COC2)CCN1c1ccc(Nc2cc(-c3ccnc(N4CCn5c(cc6c5CC(C)(C)C6)C4=O)c3CO)cn(C)c2=O)nc1` [GDC-0853, fenebrutinib, reference compound], for which the “RLM, percentage of the remaining compound after 30 minutes of incubation” value in data set [4] is recorded as 81.0%. Also, the results for the “effect on paw volume” value in data set [5] (0.25 mg/kg oral QD) and in data set [5] (4 mg/kg oral QD) were “no improvement effect” and “significantly reduced”, respectively. The concentration at 16 h in data set [3] was 5.01 ± 2.26 ng/mL.

These data come from US11655254B2, “Substituted piperazines as BTK inhibitors” (HUTCHISON MEDIPHARMA LIMITED, priority 2020, dated 2023).
